This note sets out measurements from ChEMBL document CHEMBL1133043, “Potent inhibition of retinoic acid metabolism enzyme(s) by novel azolyl retinoids” (Bioorg Med Chem Lett, 2000).

The assay relates to Cricetinae gen. sp. The assay is described as follows: The compound was tested for the inhibition of all-trans retinoic acid (ATRA) catabolism using 7.27 pmol [11,12-3H]-ATRA as substrate in microsomal preparations of male hamster liver fortified with NADPH. The class given is functional.
For the compound `CC(=O)N1CCN(c2ccc(OC[C@H]3CO[C@](Cn4ccnc4)(c4ccc(Cl)cc4Cl)O3)cc2)CC1` [KETOCONAZOLE], 34000 nM corresponded to half-maximal inhibition (IC50).
`COC(=O)/C=C(C)/C=C/C=C(C)/C=C/C1=C(C)C(n2cncn2)CCC1(C)C` (stereo not given) displayed a half-maximal inhibitory concentration (IC50) of 680 nM. This IC50 lies about 50-fold lower than the previous one.
For `CC1=C(/C=C/C(C)=C/C=C/C(C)=C/C(=O)O)C(C)(C)CCC1n1cncn1` (stereo not given), the IC50 was found to be 880 nM.
`CC1=C(/C=C/C(C)=C/C=C/C(C)=C/C(=O)O)C(C)(C)CCC1n1ccnc1` (stereo not given) returned a half-maximal inhibitory concentration (IC50) of 100 nM.
In turn, `CC1=C(/C=C/C(C)=C/C=C/C(C)=C/C(=O)O)C(C)(C)CCC1n1cnnc1` (stereo not given) registered an IC50 of 1620 nM.

The IC50 is the concentration that inhibits the measured activity by half. Read a low IC50 as greater potency in that assay.
